Source: patent EP0019589A1, “Tripeptide derivatives and their use in a process for determining enzymes” (Pentapharm A.G., priority 1979, dated 1980)
Non-standard residues stand in square brackets, D forms with d. Residues, ends and D or L forms follow the SMILES beside them. *: point of attachment. dCha = N[C@H](CC1CCCCC1)C(=O)O; dChg = N[C@@H](C(=O)O)C1CCCCC1; pNA = O=[N+]([O-])c1ccc(N*)cc1; Chg = N[C@H](C(=O)O)C1CCCCC1; Phg = N[C@H](C(=O)O)c1ccccc1; dNva = CCC[C@@H](N)C(=O)O

Tests used:
Assay type in all cases: biochemical
Humanthrombin = target: T1, Humanthrombin (Homo sapiens, UniProt P00734); test: Cleavage of chromogenic substrate by human NIH thrombin; conditions: 1 NIH-Einheit human thrombin, per min; Substratkonzentration 2 x 10^-4 molar
T1 construct: Humanplasmin und hu-manem NIH-Thrombin
Outline: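 Thrombin hydrolysis of chromogenic p-nitroanilide substrate read spectrophotometrically at 405 nm; fluorogenic naphthylamine, methylcoumarylamine or di(methoxycarbonyl)phenylamine substrates read continuously by fluorescence emission at 400-470 nm. Activity taken as product formed per unit time; 1 µmol product/min defined as 1 enzyme unit for a given substrate.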

[1] = target: T2, Submandibularis-Kallikrein (Homo sapiens, UniProt P06870); test: Cleavage of chromogenic substrate by submandibular (glandular) kallikrein in human sputum; conditions: 1 ml human sputum, per min; Substratkonzentration 2 x 10^-4 molar
T2 construct: Man mischt 0,5 ml Sputum mit 2 ml TRIS-Imidazol-Puffer; from tissue; host or cells: human sputum
Outline: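 Sputum mixed with TRIS-imidazole buffer (ionic strength 1.0), preincubated 5 min at 37°C and centrifuged; supernatant incubated with aqueous substrate solution (2 x 10^-3 M, stock). p-Nitroaniline release followed continuously at 405 nm for 5-10 min; activity expressed as mU per ml sputum from ΔOD/min.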

Urinkallikrein = target: T3, Urinkallikrein (Homo sapiens, UniProt P06870); test: Cleavage of chromogenic substrate by urinary kallikrein in human urine; conditions: 1 ml human urine (pooled morning urine of healthy persons), per min; Substratkonzentration 2 x 10^-4 molar
T3 construct: 1 ml Urin und 1 ml TRIS-Imidazol-Puffer mit pH 7,9; from tissue; host or cells: human urine

Humanplasmin = target: T4, Humanplasmin (Homo sapiens, UniProt P00747); test: Cleavage of chromogenic substrate by human plasmin; conditions: 1 CU-Einheit human plasmin, per min; Substratkonzentration 2 x 10^-4 molar
T4 construct: da bei der Aktivierung aus 1 Molekül Plasminogen 1 Molekül Plasmin entsteht
T4 sequence (P00747 581-810 limits assumed): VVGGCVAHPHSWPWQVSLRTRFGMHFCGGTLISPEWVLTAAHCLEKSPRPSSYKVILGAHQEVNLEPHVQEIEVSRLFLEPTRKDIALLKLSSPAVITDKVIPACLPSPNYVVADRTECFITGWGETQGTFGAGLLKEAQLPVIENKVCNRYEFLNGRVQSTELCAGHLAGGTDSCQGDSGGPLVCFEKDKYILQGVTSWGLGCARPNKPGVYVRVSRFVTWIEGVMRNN
T4 sequence (P00747 97-580 partner limits assumed): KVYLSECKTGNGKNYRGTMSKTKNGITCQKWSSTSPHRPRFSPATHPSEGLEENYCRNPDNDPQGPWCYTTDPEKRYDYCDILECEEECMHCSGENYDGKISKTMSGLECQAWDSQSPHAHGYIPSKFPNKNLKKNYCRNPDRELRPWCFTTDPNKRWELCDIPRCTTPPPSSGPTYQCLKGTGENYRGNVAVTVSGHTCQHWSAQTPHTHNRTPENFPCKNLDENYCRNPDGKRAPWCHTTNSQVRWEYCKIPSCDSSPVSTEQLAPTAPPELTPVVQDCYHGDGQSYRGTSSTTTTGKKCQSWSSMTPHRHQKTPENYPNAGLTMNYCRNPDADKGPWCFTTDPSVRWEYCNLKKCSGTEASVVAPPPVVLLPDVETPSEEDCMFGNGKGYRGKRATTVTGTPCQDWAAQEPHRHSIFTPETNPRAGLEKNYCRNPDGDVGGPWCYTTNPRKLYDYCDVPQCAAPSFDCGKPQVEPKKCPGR

T3 sequence (P06870 25-262): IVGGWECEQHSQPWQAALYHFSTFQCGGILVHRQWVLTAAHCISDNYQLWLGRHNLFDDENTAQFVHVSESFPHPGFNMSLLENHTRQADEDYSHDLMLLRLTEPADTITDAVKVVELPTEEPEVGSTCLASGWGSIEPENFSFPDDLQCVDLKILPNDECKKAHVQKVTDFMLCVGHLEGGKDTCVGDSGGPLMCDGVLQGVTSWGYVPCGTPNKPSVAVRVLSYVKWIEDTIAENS
T2 sequence (P06870 25-262): as above

Structure (SMILES) | Menge des durch 1 NIH-Einheit Thrombin pro Min. freigesetzten Spaltproduktes R-NH2 in Nanomol (Humanthrombin) (Humanthrombin) | Menge des durch 1 ml Humansputum pro Min. freigesetzten Spaltproduktes R-NH2 in Nanomol (Submandibularis-Kallikrein) [1] | Menge des durch 1 ml Humanurin pro Min. freigesetzten Spaltproduktes R-NH2 in Nanomol (Urinkallikrein) (Urinkallikrein) | Menge des durch 1 CU-Einheit Humanplasmin pro Min. freigesetzten Spaltproduktes R-NH2 in Nanomol (Humanplasmin) (Humanplasmin) [Nanomol]
CC(C)C[C@H](NC(=O)[C@H](N)CC1CCCCC1)C(=O)N[C@@H](CCCNC(=N)N)C(=O)Nc1ccc([N+](=O)[O-])cc1 [Beispiel 52, 2HBr.H-D-CHA-Leu-Arg-pNA] (H-[dCha]-Leu-Arg-pNA) | 57,6 Nanomol | 8,8 Nanomol | 0,64 Nanomol | 555
CC(C)C[C@@H](N)C(=O)N[C@H](C(=O)N[C@@H](CCCNC(=N)N)C(=O)Nc1ccc([N+](=O)[O-])cc1)c1ccccc1 [Beispiel 53, 2HBr.H-D-Leu-Ph'Gly-Arg-pNA] (H-[dL]-[Phg]-Arg-pNA) | 27,4 Nanomol | 25,8 Nanomol | 0,67 Nanomol | 422
CCC[C@@H](N)C(=O)N[C@H](C(=O)N[C@@H](CCCNC(=N)N)C(=O)Nc1ccc([N+](=O)[O-])cc1)c1ccccc1 [Beispiel 54, 2HBr.H-D-Nval-Ph'Gly-Arg-pNA] (H-[dNva]-[Phg]-Arg-pNA) | 19,2 Nanomol | 22,9 Nanomol | 0,58 Nanomol | 382
C[C@@H](N)C(=O)N[C@H](C(=O)N[C@@H](CCCNC(=N)N)C(=O)Nc1ccc([N+](=O)[O-])cc1)c1ccccc1 [Beispiel 55, 2HBr.H-D-Ala-Ph'Gly-Arg-pNA] (H-[dA]-[Phg]-Arg-pNA) | 4,2 Nanomol | 23,5 Nanomol | 0,42 Nanomol | 141
N=C(N)NCCC[C@H](NC(=O)[C@@H](NC(=O)[C@H](N)CC1CCCCC1)c1ccccc1)C(=O)Nc1ccc([N+](=O)[O-])cc1 [Beispiel 56, 2HBr.H-D-CHA-Ph'Gly-Arg-pNA] (H-[dCha]-[Phg]-Arg-pNA) | 120,2 Nanomol | 29,4 Nanomol | 0,64 Nanomol | 559
N=C(N)NCCC[C@H](NC(=O)[C@@H](NC(=O)[C@H](N)CC1CCC(O)CC1)c1ccccc1)C(=O)Nc1ccc([N+](=O)[O-])cc1 (stereo partly drawn) [Beispiel 57, 2HBr.H-D-CHT-Ph'Gly-Arg-pNA] | 112,1 Nanomol | 31,1 Nanomol | 0,45 Nanomol | 591
N=C(N)NCCC[C@H](NC(=O)[C@@H](NC(=O)[C@H](N)C1CCCCC1)c1ccccc1)C(=O)Nc1ccc([N+](=O)[O-])cc1 [Beispiel 58, 2HBr.H-D-CHG-Ph'Gly-Arg-pNA] (H-[dChg]-[Phg]-Arg-pNA) | 63,7 Nanomol | 22,1 Nanomol | 0,38 Nanomol | 446
N=C(N)NCCC[C@H](NC(=O)[C@@H](NC(=O)[C@H](N)C1CCCCC1)C1CCCCC1)C(=O)Nc1ccc([N+](=O)[O-])cc1 [Beispiel 59, 2HBr.H-D-CHG-CHG-Arg-pNA] (H-[dChg]-[Chg]-Arg-pNA) | 7,5 Nanomol | 5,9 Nanomol | 0,33 Nanomol | 101
